In patent US20230201166A1, “METHODS FOR TREATING CANCER BY INHIBITING CARM1” (DANA-FARBER CANCER INSTITUTE, INC., priority 2020, published 2023):

Legend:
B16F10 tumors = assay: B16F10 melanoma tumor model
Procedure: B16F10 or MC38 tumor cells (2×10^5) were injected subcutaneously in 50 μL of PBS into syngeneic C57BL/6J mice. […] Mice receiving an isotype control mAb (Bio X Cell, clone HRPN #BE0088) at the same dose in PBS were used as controls.
For checkpoint blockade experiments, tumor-bearing mice were administered with anti-CTLA4 mAb (clone 9H10, #BP0131, 100 μg/injection) or corresponding isotype control Ab (polyclonal Syrian hamster IgG, 100 μg/mouse). Alternatively, mice received anti-PD1 (clone 29F.1A12, #BE0273, 200 m/injection) or rat IgG2a isotype control Ab, anti-trinitrophenol (Clone: 2A3, 200 μg/injection) starting on day 7 post tumor inoculation and then every 3rd day.

[1] = test system: malignant melanoma cell lines; details: cited from earlier work
B16F10 tumor cells = assay: dsDNA damage, γH2AX immunofluorescence; format: cell-based, murine; details: B16F10 melanoma cells
Procedure: Representative immunofluorescence images (left) of γH2AX antibody labeling (purple); nuclei labeled with DAPI. Quantification of number of γH2AX foci/nucleus (right). Data are shown as mean±SEM, ***p<0.001, by unpaired two-sided Mann-Whitney test. Scale bar—[…].
Cells were grown on glass coverslips, washed with PBS and fixed in 4% paraformaldehyde in PBS for 20 min at room temperature. Cells were permeabilized in 0.2% Triton X-100 for 15 min before blocking for 30 min with 10% serum-containing blocker (ThermoFisher). Coverslips were then incubated with primary antibody overnight […] in a humidified chamber, followed by incubation with a secondary antibody for 1 hour. Primary and secondary antibodies were diluted in blocking buffer, and […]. Coverslips were mounted using Prolong Gold Antifade Mounting Medium with DAPI (ThermoFisher). Imaging was performed using a Hamamatsu ORCA-Flash4.0 V3 Digital CMOS camera and Nikon Ti-E Motorized Microscope 2000U microscope with Plan Apo Lamda 60×/1.40 Oil Ph3 DM objectives. Images were captured with Nikon Elements Acquisition Software. All scoring was performed under blinded conditions. Three independent experiments with three biological replicates per group were performed.

[2] = test system: CARM1 activity in tumor cells; assay: CARM1 activity in tumor cells (me2BAF155 western blot); format: cell-based, human; details: sub-micromolar levels
Procedure: BAF155 is a well-validated target of CARM1. […] Western blots were probed with Abs specific for di-methylated BAF155 protein (me2BAF155), total BAF155 protein and β-actin (loading control).
Whole cell extracts were prepared by lysis and sonication of cells in RIPA buffer [20 mM Tris-HCl (pH 7.5), 150 mM NaCl, 1 mM EDTA, 1 mM EGTA, 1% NP-40, 1% sodium deoxycholate, 2.5 mM sodium pyrophosphate, 1 mM β-glycerophosphate, 1 mM Na3VO4, 1 μg/ml leupeptin] supplemented with Halt Protease and Phosphatase Inhibitor Cocktail (ThermoFisher). Protein concentrations were determined using a Bradford Protein Assay (Bio-Rad). Protein samples (20 […]g) were resolved by SDS-PAGE using 4-12% NuPAGE Novex Bis-Tris mini gels (ThermoFisher) and transferred onto a PVDF membrane (Bio-Rad). Blots were blocked in 5% Blocker powder (Bio-Rad), 0.2% Tween in PBS and then incubated overnight with primary antibodies. Following incubation with secondary detection reagents and subsequent washing, blots were incubated in Western Lightening Plus-ECL substrate (PerkinElmer). Luminescence was captured using a ChemiDoc MP system (Bio-Rad Laboratories).

BT549 TNBC cells = assay: T cell cytotoxicity assay, BT549 TNBC cells with NY-ESO-1 TCR human CD8 T cells; format: cell-based; details: pre-treatment 0.1 μM for 24 hours
Procedure: FIG. 3L illustrates that inactivation of Carm1 gene in tumor cells elicits tumor immunity, showing T cell cytotoxicity assay with human BT549 TNBC and human CD8 T cells that expressed a NY-ESO-1 TCR. […] In FIGS. 3A-3L, two-way ANOVA was used to determine statistical significance for tumor measurements at time points when all mice were alive. Statistical significance for survival of mice in each treatment group were calculated by Log-rank (Mantel-Cox) test. Bar graphs represent data summarized as mean±S.E.M. and were analyzed by unpaired two-sided Mann-Whitney test. Data shown are representative of three experiments. *p<0.05, **p<0.01, ***p<0.001, ****p<0.0001, ns (non-significant).
T cell cytotoxicity assay using human tumor cells was performed using NY-ESO-1 transduced human CD8 T cells and BT549 human triple negative breast cancer cells which were HLA-A02*01 positive and endogenously expressed the NY-ESO-1 antigen. BT549 cells were co-cultured with human CD8 T cells that expressed a NY-ESO-1 TCR at increasing effector to target (E:T) ratios for 12-72 hours. Cytotoxicity was quantified by flow cytometry. All in vitro cytotoxicity assays were performed in human or murine T cell media (without addition of IL-2).

[3] = 150 mg/kg b.i.d. orally days 7-21, in combination with CTLA-4 mAb

CNC[C@@H](O)COc1ccc(Cl)c(-c2nc(-c3c(C)noc3C)c(C)c(N3CC4(CCN(C(=O)OC)CC4)C3)n2)c1 (stereo in doubt) [EZM2302]
sensitization of tumors to checkpoint blockade (B16F10 tumors; [3]): sensitized B16F10 melanomas to checkpoint blockade with a CTLA-4 mAb
survival (B16F10 tumors; [3]): significant survival benefit
B16F10 tumor growth (B16F10 tumors; oral, 150 mg/kg/day, B16F10 tumor bearing mice): significantly suppresses B16F10 tumor growth
cell stasis, IC50 [1]: nanomolar range
inhibition of PABP1 and SMB methylation, IC50 [1]: nanomolar range
γH2AX foci (B16F10 tumor cells): induced γH2AX foci accumulation
suppression of CARM1 activity in tumor cells [2]: suppress CARM1 activity
CD8 T cell-mediated cytotoxicity (BT549 TNBC cells): enhanced CD8 T cell-mediated cytotoxicity
